Experimental data taken from PMC10743086, “Immunofluorescence-Based Assay for High-Throughput Analysis of Multidrug Resistance Markers in Non-Small Cell Lung Carcinoma Patient-Derived Cells” (Diagnostics, 2023).

Columns and labels:
Assay type in all cases: cell-based, human
[1] = test system: NCI-H460 cells; experiment: Cytotoxicity by immunofluorescence cell scoring (cell counts), NSCLC cell line; conditions: Homo sapiens, NCI-H460, 24 h, 24 h treatment
Outline: (§1)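 Compounds added 48 h after seeding, then 24 h exposure. Cells fixed in 4% paraformaldehyde, BSA-blocked, co-stained for ABCB1 with CK8/18 to separate cancer from stromal cells; 4x automated imaging. Cytotoxicity from cell-count scoring; ABCB1 expression from multi-wavelength cell scoring.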

[2] = test system: Non-cancer cells (CK8/18-) of patient-derived NSCLC cultures; experiment: Cytotoxicity in patient-derived NSCLC cultures, non-cancer cells; conditions: Homo sapiens, 168 h, 7 days treatment
Outline: (§2)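 Read-out is immunofluorescence, with cytokeratin 8/18 marking cancer cells and CK8/18-negative cells counted as non-cancer, co-stained for ABC transporters. Patient-derived NSCLC cultures at 1000 cells per well received compounds 72 h post-seeding for 7 days.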

[3] = test system: MRC-5 cells; experiment: Cytotoxicity by immunofluorescence cell scoring (cell counts), normal fibroblasts; conditions: Homo sapiens, MRC5, 24 h, 24 h treatment
Outline: as §1

[4] = test system: ABCB1 expression in NCI-H460 cells; experiment: Immunofluorescence assay of MDR marker ABCB1 expression; conditions: five concentrations, 24 h
Outline: as §1

[5] = test system: ABCB1 expression in NCI-H460/R cells; experiment: as above; conditions: five concentrations, 24 h
Outline: as §1

[6] = test system: ABCB1 expression in MRC-5 cells; experiment: as above; conditions: five concentrations, 24 h
Outline: as §1

[7] = test system: ABCC1 expression in cancer cells (CK8/18+); experiment: Immunofluorescence assay of ABCC1 expression in patient-derived NSCLC cultures; conditions: 7 days
Outline: as §2

[8] = test system: ABCB1 expression in cancer cells (CK8/18+); experiment: Immunofluorescence assay of ABCB1 expression in patient-derived NSCLC cultures; conditions: 7 days
Outline: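 PDC from resected NSCLC, Tumor Dissociation Kit, DMEM/F12 + 5% FBS, hydrocortisone, insulin, EGF, adenine. 1000 cells/well; drug added at 72 h, 7 d exposure. Fix 4% PFA 20 min RT, block 2% BSA 1 h; CK8/18 co-stain with ABC markers.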

[9] = test system: ABCG2 expression in cancer cells (CK8/18+); experiment: Immunofluorescence assay of ABCG2 expression in patient-derived NSCLC cultures; conditions: 7 days
Outline: as §2

[10] = test system: Cancer cells (CK8/18+) of patient-derived NSCLC cultures; experiment: Cytotoxicity in patient-derived NSCLC cultures, cancer cells; conditions: Homo sapiens, 168 h, 7 days treatment
Outline: as §2

[11] = NCI-H460 (co-culture with MRC-5)
[12] = MRC-5 (co-culture with NCI-H460)
[13] = MRC-5 (co-culture with NCI-H460/R)
[14] = culture TR58, cancer cells (CK8/18+)
[15] = culture TR64, cancer cells (CK8/18+)
[16] = culture TR65, cancer cells (CK8/18+)
[17] = culture TR84, cancer cells (CK8/18+)
[18] = culture TR87, cancer cells (CK8/18+)

Molecule `Nc1ccn([C@@H]2O[C@H](CO)[C@@H](O)C2(F)F)c(=O)n1` [Gemcitabine, gemcitabine] has an IC50 [1, 11] of 34.6 µM, an IC50 ([1]; NCI-H460 monoculture) of 41.6 µM and an IC50 ([2]; culture TR58, non-cancer cells (CK8/18-)) of 3070 nM. It also gave an IC50 ([2]; culture TR64, non-cancer cells (CK8/18-)) of 7060 nM, an IC50 ([2]; culture TR65, non-cancer cells (CK8/18-)) of 351 nM and an IC50 ([2]; culture TR84, non-cancer cells (CK8/18-)) of 491 nM. The IC50 ([2]; culture TR87, non-cancer cells (CK8/18-)) was 1130 nM, the IC50 [3, 12] was over 100 µM and the IC50 [3, 13] was over 100 µM. For the same molecule, the IC50 ([3]; MRC-5 monoculture) was over 100 µM, the “ABCB1 Expression” value [4, 11] was “no change” and the “ABCB1 Expression” value ([4]; NCI-H460 monoculture) was “no change”. The “ABCB1 Expression” value ([5]; NCI-H460/R (co-culture with MRC-5)) was “no change”, the “ABCB1 Expression” value ([5]; NCI-H460/R monoculture) was “no change” and the “ABCB1 Expression” value [6, 12] was “no change”. The “ABCB1 Expression” value [6, 13] was “no change”, the “ABCB1 Expression” value ([6]; MRC-5 monoculture) was “no change” and the ABCC1 expression [7, 14] was “no change”. The ABCC1 expression [7, 15] was “increase (An increase in ABCB1, ABCC1, or ABCG2 expression of at least 20% at a minimum of one concentration is shown in the table.)”, the ABCC1 expression [7, 16] was “increase (An increase in ABCB1, ABCC1, or ABCG2 expression of at least 20% at a minimum of one concentration is shown in the table.)” and the ABCC1 expression [7, 17] was “increase (An increase in ABCB1, ABCC1, or ABCG2 expression of at least 20% at a minimum of one concentration is shown in the table.)”. For the same molecule, the ABCC1 expression [7, 18] was “increase (An increase in ABCB1, ABCC1, or ABCG2 expression of at least 20% at a minimum of one concentration is shown in the table.)”, the ABCB1 Expression [8, 14] was “no change” and the ABCB1 Expression [8, 15] was “increase (An increase in ABCB1, ABCC1, or ABCG2 expression of at least 20% at a minimum of one concentration is shown in the table.)”. The ABCB1 Expression [8, 16] was “increase (An increase in ABCB1, ABCC1, or ABCG2 expression of at least 20% at a minimum of one concentration is shown in the table.)”, the ABCB1 Expression [8, 17] was “increase (An increase in ABCB1, ABCC1, or ABCG2 expression of at least 20% at a minimum of one concentration is shown in the table.)” and the ABCB1 Expression [8, 18] was “increase (An increase in ABCB1, ABCC1, or ABCG2 expression of at least 20% at a minimum of one concentration is shown in the table.)”. The ABCG2 expression [9, 14] was “increase (An increase in ABCB1, ABCC1, or ABCG2 expression of at least 20% at a minimum of one concentration is shown in the table.)”, the ABCG2 expression [9, 15] was “increase (An increase in ABCB1, ABCC1, or ABCG2 expression of at least 20% at a minimum of one concentration is shown in the table.)” and the ABCG2 expression [9, 16] was “increase (An increase in ABCB1, ABCC1, or ABCG2 expression of at least 20% at a minimum of one concentration is shown in the table.)”. For the same molecule, the ABCG2 expression [9, 17] was “increase (An increase in ABCB1, ABCC1, or ABCG2 expression of at least 20% at a minimum of one concentration is shown in the table.)”, the ABCG2 expression [9, 18] was “increase (An increase in ABCB1, ABCC1, or ABCG2 expression of at least 20% at a minimum of one concentration is shown in the table.)” and the IC50 [10, 14] was 2.55 µM. It also gave an IC50 [10, 15] of 4.92 µM, an IC50 [10, 16] of 4.91 µM and an IC50 [10, 17] of 2.68 µM. It also gave an IC50 [10, 18] of 3.41 µM.
